Several values for one entry are separate records, joined by “and”; a condition that tells them apart may be missing. Identical values can stand only once.
Legend:
[1] = Bidirectional (AP→BL, BL→AP) drug transport across Caco-2 cell monolayers in transwells: cumulative transport, Papp, efflux ratio; HPLC or radiolabeled assay; conditions: human
Procedure: (§1) The monolayers used were of between passage 20 and 65 after 15 days of growth. Each experiment was performed in duplicate using two six well-transwell culture plates. The cells were trypsinized as described earlier, and after centrifugation the pellet re-suspended in fresh DMEM (+15%), and the cells counted using a cell counter. A volume of DMEM was added enough to give a cell count of 2 × 10^6 cells per ml, and cells were seeded on the transwell culture plates at a density of 2 × 10^4 cells/cm^2 (~ 100,000 cells per well, since insert membrane growth area = 4.67 cm^2). The plates were then incubated at 37°C and 10% CO2 in a humidified chamber and the media changed every 2-3 days, by aspirating using a suction pump and replacing with an equal volume of DMEM. Transport experiments were conducted 15 to 20 days after seeding. The TEER across the cell monolayers was monitored using a Millicell-ERS in order to assess cell monolayer integrity and the monolayers considered appropriate for the experiment when the TEER values were typically above 500 cm^2 [49, 70].
(§2) Prior to transport studies, each monolayer was washed and equilibrated with the transport medium (DMEM without FBS). The medium was removed from all AP and BL compartments of the transwells and replaced with 2 ml of the transport medium (DMEM alone), to both compartments and equilibrated for 1 h (37°C, 10% CO2 incubator), after which the TEER was re-assessed and labeled. The medium was then removed from both compartments and replaced with an equal volume of pre-warmed medium containing the compound of interest at the appropriate concentration. For the AP → BL transport, 2 ml of medium containing the desired drug was placed in the AP chamber and 2 ml of the medium alone in the BL chamber, whereas 2 ml of medium containing the drug was placed in the BL and 2 ml of medium on the AP chamber for the BL → AP transport [71]. The effect of the second drug was then assessed by adding the medium containing the original drug and the drug under study to the AP side for AP → BL transport with the medium containing the original drug alone in the BL chamber, and vice-versa for the BL → AP transport. Transport in each direction was done in triplicate. The transwell plates were then incubated (37°C, 10% CO2 incubator), and 100μl of the samples from the AP and BL compartments were taken at 60, 120, 180 and 240 min and quantified either by HPLC method described earlier [45], or by the use of a liquid scintillating counter depending on the drug under study. The HPLC method involved liquid - liquid extraction followed by ultra-high performance liquid chromatography using a Hypurity C18 column and ultraviolet detection set at a wavelength of 215 nm. The mobile phase consisted of ammonium formate, acetonitrile and methanol (57:38:5 v/v). Separation was facilitated via isocratic elution at a flow rate of 1.5 ml/min. For HPLC assays, the concentration used for each drug was 20μg/ml. The concentrations that offered the best detection were selected for radiolabeled assay. […] The integrity of the CCM during the experiment was monitored by measuring the TEER at the beginning (0 min) and the end of the experiment (240min).
(§3) The results were expressed as apparent permeability coefficient (Papp, unit: cms^-1), the amount of compound transported per second. Papp values were calculated for both AP to BL (PappAtoB), and BL to AP (PappBtoA) movement of the compound. Papp was calculated using the following equation [52, 72]: • Papp (cm/s) = (dQ/dt) x (1/(ACO) • dQ/dt = Steady-state flux (dpm s^-1 or μmol s^-1) • A = Surface area of the filter (cm^2) • CO = Initial concentration in the donor chamber (dpm litre ^-1 or μM)
(§4) The quotient of secretory permeability and absorptive permeability (PappBL-AP/PappAP-BL) constitutes the efflux ratio, while the reverse (PappAP-BL/PappBL-AP) is the uptake ratio [71].

Caco-2 cell monolayers = assay: as above; conditions: for Apical to basal transport (cumulative, receiver), Mean / Basal to apical transport (cumulative, receiver), Mean: mean n=3
Procedure: as §1, §2, §3, §4

[2] = cited from earlier work
[3] = Caco-2, Papp AP → BL, mean (n=3) after 60 min, drug A alone, or label 'A + B' = transport of A in presence of interacting drug B, concentrations per Table 1
[4] = Caco-2, Papp BL → AP, mean (n=3) after 60 min, drug A alone, or label 'A + B' = transport of A in presence of interacting drug B, concentrations per Table 1
[5] = 120 min, individual samples 1-3
[6] = 180 min, individual samples 1-3
[7] = 240 min, individual samples 1-3
[8] = labelled drug is the interacting drug
[9] = mean (n=3) after 60 min, drug A alone, or label 'A + B' = transport of A in presence of interacting drug B, concentrations per Table 1
[10] = samples after 60min, individual samples 1-3
[11] = SQV alone (PZQ experiment), 60 min, mean
[12] = SQV alone (PZQ experiment), 60 min, samples 1-3
[13] = SQV alone (PZQ experiment), 120 min, mean
[14] = SQV alone (PZQ experiment), 120 min, samples 1-3
[15] = SQV alone (PZQ experiment), 180 min, mean
[16] = SQV alone (PZQ experiment), 180 min, samples 1-3
[17] = SQV alone (PZQ experiment), 240 min, mean
[18] = SQV alone (PZQ experiment), 240 min, samples 1-3
[19] = SQV alone (PZQ experiment), after 60min, mean
[20] = SQV alone, 60 min, individual experiments 1-3
[21] = SQV alone, 180 min, individual experiments 1-3
[22] = SQV alone, 240 min, individual experiments 1-3
[23] = SQV alone, after 60 min, samples 1-3
[24] = [3H] NVP alone, 60 min, individual experiments 1-3
[25] = [3H] NVP alone, 60 min, mean, n=3
[26] = [3H] NVP alone, 120 min, individual experiments 1-3
[27] = [3H] NVP alone, 120 min, mean, n=3
[28] = [3H] NVP alone, 180 min, individual experiments 1-3
[29] = [3H] NVP alone, 180 min, mean, n=3
[30] = [3H] NVP alone, 240 min, individual experiments 1-3
[31] = [3H] NVP alone, 240 min, mean, n=3
[32] = [3H] NVP alone, after 60 min, samples 1-3

O=C1Nc2ccc(Cl)cc2[C@@](C#CC2CC2)(C(F)(F)F)O1 [EFV, efavirenz]
Papp A→B at 60 min [1, 3]: 16.5 ×10⁻⁶ cm/s
Papp B→A at 60 min [1, 4]: 10.8 ×10⁻⁶ cm/s
Papp A→B at 60 min ([1]; Caco-2, PappAB, Papp, samples after 60min, individual samples 1-3): 20 ×10⁻⁶ cm/s
Papp B→A at 60 min ([1]; Caco-2, PappBA, Papp, samples after 60min, individual samples 1-3): 13.4 ×10⁻⁶ cm/s
Apical to basal transport (cumulative, receiver) (Caco-2 cell monolayers; 60 min, individual samples 1-3): 0.31 pmoles (2×) and 0.32 pmoles
Basal to apical transport (cumulative, receiver) (Caco-2 cell monolayers; 60 min, individual samples 1-3): 0.30 pmoles (2×) and 0.25 pmoles
Apical to basal transport (cumulative, receiver), Mean (Caco-2 cell monolayers; 60 min): 0.32 pmol
Basal to apical transport (cumulative, receiver), Mean (Caco-2 cell monolayers; 60 min): 0.28 pmol
Apical to basal transport (cumulative, receiver) (Caco-2 cell monolayers; [5]): 0.61 pmol and 0.54 pmol and 0.55 pmol
Basal to apical transport (cumulative, receiver) (Caco-2 cell monolayers; [5]): 0.53 pmol and 0.50 pmol and 0.57 pmol
Apical to basal transport (cumulative, receiver), Mean (Caco-2 cell monolayers; 120 min): 0.56 pmol
Basal to apical transport (cumulative, receiver), Mean (Caco-2 cell monolayers; 120 min): 0.53 pmol
Apical to basal transport (cumulative, receiver) (Caco-2 cell monolayers; [6]): 0.67 pmol and 0.70 pmol and 0.71 pmol
Basal to apical transport (cumulative, receiver) (Caco-2 cell monolayers; [6]): 0.69 pmol and 0.65 pmol and 0.70 pmol
Apical to basal transport (cumulative, receiver), Mean (Caco-2 cell monolayers; 180 min): 0.69 pmol
Basal to apical transport (cumulative, receiver), Mean (Caco-2 cell monolayers; 180 min): 0.68 pmol
Apical to basal transport (cumulative, receiver) (Caco-2 cell monolayers; [7]): 0.78 pmol and 0.86 pmol and 0.82 pmol
Basal to apical transport (cumulative, receiver) (Caco-2 cell monolayers; [7]): 0.86 pmol and 0.78 pmol and 0.84 pmol
Apical to basal transport (cumulative, receiver), Mean (Caco-2 cell monolayers; 240 min): 0.82 pmol
Basal to apical transport (cumulative, receiver), Mean (Caco-2 cell monolayers; 240 min): 0.83 pmol
Effect on the transport of PZQ (Caco-2 cell monolayers; [8]): did not affect
Papp AP → BL (Caco-2 cell monolayers; [9]): 16.5 ×10⁻⁶ cm/s
Papp BL → AP (Caco-2 cell monolayers; [9]): 10.8 ×10⁻⁶ cm/s
PappAB Papp (Caco-2 cell monolayers; [10]): 15.9 ×10⁻⁶ cm/s and 13.5 ×10⁻⁶ cm/s
PappBA Papp (Caco-2 cell monolayers; [10]): 9.29 ×10⁻⁶ cm/s and 9.67 ×10⁻⁶ cm/s

CC(C)(C)NC(=O)[C@@H]1C[C@@H]2CCCC[C@@H]2CN1C[C@@H](O)[C@H](Cc1ccccc1)NC(=O)[C@H](CC(N)=O)NC(=O)c1ccc2ccccc2n1 [SQV, saquinavir]
Log Kow [2]: 2.5
Papp A→B at 60 min [1, 3]: 6.9 ×10⁻⁶ cm/s
Papp B→A at 60 min [1, 4]: 21.1 ×10⁻⁶ cm/s
Papp A→B at 60 min ([1]; Caco-2, PappAB Papp, SQV alone, after 60 min, samples 1-3): 7.01 ×10⁻⁶ cm/s
Papp B→A at 60 min ([1]; Caco-2, PappBA Papp, SQV alone, after 60 min, samples 1-3): 25.1 ×10⁻⁶ cm/s
Apical to basal transport Mean (Caco-2 cell monolayers; [11]): 3.18 pmol
Basal to apical transport Mean (Caco-2 cell monolayers; [11]): 6.29 pmol
Apical to basal transport (Caco-2 cell monolayers; [12]): 3.93 pmol and 2.52 pmol and 3.10 pmol
Basal to apical transport (Caco-2 cell monolayers; [12]): 5.98 pmol and 5.60 pmol and 7.29 pmol
Apical to basal transport Mean (Caco-2 cell monolayers; [13]): 4.32 pmol
Basal to apical transport Mean (Caco-2 cell monolayers; [13]): 11.52 pmol
Apical to basal transport (Caco-2 cell monolayers; [14]): 4.59 pmol and 4.09 pmol and 4.29 pmol
Basal to apical transport (Caco-2 cell monolayers; [14]): 10.77 pmol and 11.26 pmol and 12.52 pmol
Apical to basal transport Mean (Caco-2 cell monolayers; [15]): 5.73 pmol
Basal to apical transport Mean (Caco-2 cell monolayers; [15]): 16.09 pmol
Apical to basal transport (Caco-2 cell monolayers; [16]): 5.76 pmol and 5.30 pmol and 6.14 pmol
Basal to apical transport (Caco-2 cell monolayers; [16]): 16.14 pmol and 16.78 pmol and 15.35 pmol
Apical to basal transport Mean (Caco-2 cell monolayers; [17]): 6.40 pmol
Basal to apical transport Mean (Caco-2 cell monolayers; [17]): 20.56 pmol
Apical to basal transport (Caco-2 cell monolayers; [18]): 6.59 pmol and 5.67 pmol and 6.93 pmol
Basal to apical transport (Caco-2 cell monolayers; [18]): 18.19 pmol and 23.27 pmol
PappAB Mean (Caco-2 cell monolayers; [19]): 6.56 ×10⁻⁶ cm/s
PappBA Mean (Caco-2 cell monolayers; [19]): 10.8 ×10⁻⁶ cm/s
Apical to basal transport (Caco-2 cell monolayers; [20]): 2.74 pmol and 2.54 pmol and 3.32 pmol
Basal to apical transport (Caco-2 cell monolayers; [20]): 8.18 pmol and 6.66 pmol and 9.42 pmol
Apical to basal transport Mean (Caco-2 cell monolayers; SQV alone, 60 min, mean, n=3): 2.87 pmol
Basal to apical transport Mean (Caco-2 cell monolayers; SQV alone, 60 min, mean, n=3): 8.09 pmol
Apical to basal transport Mean (Caco-2 cell monolayers; SQV alone, 120 min, mean, n=3): 5.52 pmol
Basal to apical transport Mean (Caco-2 cell monolayers; SQV alone, 120 min, mean, n=3): 14.27 pmol
Apical to basal transport (Caco-2 cell monolayers; [21]): 7.42 pmol and 7.24 pmol and 8.40 pmol
Basal to apical transport (Caco-2 cell monolayers; [21]): 18.6 pmol and 17.14 pmol and 18.78 pmol
Apical to basal transport Mean (Caco-2 cell monolayers; SQV alone, 180 min, mean, n=3): 7.69 pmol
Basal to apical transport Mean (Caco-2 cell monolayers; SQV alone, 180 min, mean, n=3): 18.17 pmol
Apical to basal transport (Caco-2 cell monolayers; [22]): 9.18 pmol and 8.8 pmol
Basal to apical transport (Caco-2 cell monolayers; [22]): 21.42 pmol and 26.66 pmol
Apical to basal transport Mean (Caco-2 cell monolayers; SQV alone, 240 min, mean, n=3): 9.74 pmol
Basal to apical transport Mean (Caco-2 cell monolayers; SQV alone, 240 min, mean, n=3): 23.51 pmol
Apical to basal transport Conc. Apical (Caco-2 cell monolayers; [23]): 23.25 pmol and 22.93 pmol
Basal to apical transport Conc. Basal (Caco-2 cell monolayers; [23]): 19.35 pmol and 21.54 pmol and 28.21 pmol
PappAB Papp (Caco-2 cell monolayers; [23]): 6.59 ×10⁻⁶ cm/s and 7.13 ×10⁻⁶ cm/s
PappBA Papp (Caco-2 cell monolayers; [23]): 18.4 ×10⁻⁶ cm/s and 19.9 ×10⁻⁶ cm/s
Effect on the transport of PZQ (Caco-2 cell monolayers; [8]): did not affect
Papp AP → BL (Caco-2 cell monolayers; [9]): 6.6 ×10⁻⁶ cm/s

Cc1ccnc2c1NC(=O)c1cccnc1N2C1CC1 [NVP, nevirapine]
efflux ratio at 60 min ([1]; Caco-2, Efflux ratio ER, [3H] NVP alone, after 60 min, samples 1-3): 1.03
Papp A→B at 60 min [1, 3]: 42.7 ×10⁻⁶ cm/s
Papp B→A at 60 min [1, 4]: 39.5 ×10⁻⁶ cm/s
Papp A→B at 60 min ([1]; Caco-2, PappAB Papp, [3H] NVP alone, after 60 min, samples 1-3): 52.9 ×10⁻⁶ cm/s
Papp B→A at 60 min ([1]; Caco-2, PappBA Papp, [3H] NVP alone, after 60 min, samples 1-3): 54.7 ×10⁻⁶ cm/s
Apical to basal transport (Caco-2 cell monolayers; [24]): 78.8 pmol and 80.8 pmol and 79.4 pmol
Basal to apical transport (Caco-2 cell monolayers; [24]): 59.7 pmol and 67.9 pmol and 77.2 pmol
Apical to basal transport Mean (Caco-2 cell monolayers; [25]): 79.68 pmol
Basal to apical transport Mean (Caco-2 cell monolayers; [25]): 68.27 pmol
Apical to basal transport (Caco-2 cell monolayers; [26]): 111.5 pmol and 123.2 pmol and 109.9 pmol
Basal to apical transport (Caco-2 cell monolayers; [26]): 81.9 pmol and 91.5 pmol and 105.1 pmol
Apical to basal transport Mean (Caco-2 cell monolayers; [27]): 114.88 pmol
Basal to apical transport Mean (Caco-2 cell monolayers; [27]): 92.84 pmol
Apical to basal transport (Caco-2 cell monolayers; [28]): 116.3 pmol and 120.3 pmol and 122.0 pmol
Basal to apical transport (Caco-2 cell monolayers; [28]): 92.9 pmol and 107.5 pmol and 118.9 pmol
Apical to basal transport Mean (Caco-2 cell monolayers; [29]): 119.53 pmol
Basal to apical transport Mean (Caco-2 cell monolayers; [29]): 106.41 pmol
Apical to basal transport (Caco-2 cell monolayers; [30]): 123.9 pmol and 122.5 pmol and 120.2 pmol
Basal to apical transport (Caco-2 cell monolayers; [30]): 98.8 pmol and 112.2 pmol and 132.2 pmol
Apical to basal transport Mean (Caco-2 cell monolayers; [31]): 122.19 pmol
Basal to apical transport Mean (Caco-2 cell monolayers; [31]): 114.39 pmol
Apical to basal transport Conc. Apical (Caco-2 cell monolayers; [32]): 177.1 pmol and 196.6 pmol and 189.3 pmol
Basal to apical transport Conc. Basal (Caco-2 cell monolayers; [32]): 129.9 pmol and 207.3 pmol and 202.9 pmol
Efflux ratio ER (Caco-2 cell monolayers; [32]): 0.80
PappAB Papp (Caco-2 cell monolayers; [32]): 40.3 ×10⁻⁶ cm/s and 34.9 ×10⁻⁶ cm/s
PappBA Papp (Caco-2 cell monolayers; [32]): 32.1 ×10⁻⁶ cm/s and 31.7 ×10⁻⁶ cm/s
Effect on the transport of IVM (Caco-2 cell monolayers; [8]): increased
Effect on the transport of PZQ (Caco-2 cell monolayers; [8]): did not affect

— article PMC5415745, “Drug-transporter mediated interactions between anthelminthic and antiretroviral drugs across the Caco-2 cell monolayers” (BMC Pharmacology & Toxicology, 2017)
